Experimental data: patent US11584733B2, “Selective histone deacetylase inhibitors for the treatment of human disease” (Shuttle Pharmaceuticals, Inc., priority 2017, dated 2023)

Test system: Pan HDAC (HeLa Nuclear Extract)
Assay: Pan HDAC assay (Enzo Fluor-de-Lys fluorometric kit, HeLa Nuclear Extract)
Assay type: biochemical
Procedure: The Pan HDAC assays described herein were performed as follows:
Materials: Enzo Fluor-de-Lys HDAC fluorometric activity assay kit; 360 nm excitation 460 nm emission Plate Reader; Disposable pipettes; Pipet-aid; Pipette tips; Micro-pipetter; DMSO; Sterile micro-tubes and conical tubes; and Micro-centrifuge.
Test compounds and control preparation: All test compounds' stock solutions were made in 100% DMSO. Test compound dilutions were made in HDAC Assay buffer with a final concentration of DMSO less than or equal to 1%. Vehicle control was HDAC Assay buffer with 1% DMSO.
The reagents for the assay were prepared as follows:
1. All kit components were defrosted and these, and all dilutions described below, were kept on ice until use. All undiluted kit components are stable for several hours on ice.
2. A sufficient amount of HeLa Nuclear Extract (BML-KI140) or other HDAC source diluted in Assay Buffer (BML-KI143) was prepared to provide for the assays that were performed (# of wells×15 μl). A 30-fold dilution of the HeLa Extract means that 15 μL contains 0.5 μl of the undiluted Extract, an appropriate amount to use per well.
3. Dilution(s) of SAHA and/or Test Inhibitors were prepared in Assay Buffer (BML-K1143). Since 10 μl were used per well, and since the final volume of the HDAC reaction was 50 μl, these inhibitor dilutions were 5× their final concentration.
4. Dilution(s) of the Fluor de Lys® Substrate (BML-KI104; 50 mM) were prepared in Assay Buffer (BML-K1143) that were 2× the desired final concentration(s). For inhibitor screening, substrate concentrations at or below the Km are recommended. Twenty-five μL were used per well. Initial dilutions of 25-fold or greater in Assay Buffer (2.0 mM or less) yielded stable solutions (see NOTE on freezing and thawing below). Rapid mixing and dilution into room temperature buffer helped to prevent precipitation at high substrate concentration. […]
6. Samples were read in a microtiter-plate reading fluorimeter capable of excitation at a wavelength in the range 350-380 nm and detection of emitted light in the range 440-460 nm.

In the case of `O=C(CCCCCCC(=O)NC1CCC(=O)NC1=O)NO` (stereo not drawn) [SP-2-59, N^1-(2,6-dioxopiperidin-3-yl)-N^8-hydroxyoctanediamide], the EC50 (FIG. 4) is reported as 16.4 µM and the “inhibitor activity in the pan-HDACs assays” value (between 5 μM and 15 μM, FIGS. 2 to 4) is reported as “minimal inhibitor activity”.

Compound `O=C(CCCCCCC(=O)Nc1cccc2c1CN(C1CCC(=O)NC1=O)C2=O)NO` (stereo not drawn) [SP-2-93, N^1-(2-(2,6-dioxopiperidin-3-yl)-1-oxoisoindolin-4-yl)-N^8-hydroxyoctanediamide] has an IC50 (Example 6, FIG. 18, 2 mg/mL formulation in 5% DMSO/40% PEG 400/55% PBS, read-out: IC50 against the PAN HDAC) of 1.89 µM.
